One assay concerns D. immitis microfilariae. Description: Dirofilaria immitis, microfilariae (DiMF) in vitro motility assay. It is filed as cell-based. The following applies: Dirofilaria immitis, 72 h, read-out: DiMF minimally effective dose (MEC).
Another assay deals with Haemonchus contortus L3. Description: microbe, parasite or virus in culture. Type of assay: cell-based. The settings on record: Haemonchus contortus, 96 h, read-out: HcL3 Minimal Effective Concentration (MEC).

Molecules are shown by their SMILES.

As for `O=C(NCc1ccnc(Cl)c1)n1c2c(c3cc(F)c(Cl)cc31)CN(C/C=C/c1ccc(Cl)c(F)c1)CC2` [Example 297, (E)-7-chloro-2-(3-(4-chloro-3-fluorophenyl)allyl)-N-((2-chloropyridin-4-yl)methyl)-8-fluoro-1,2,3,4-tetrahydro-5H-pyrido[4,3-b]indole-5-carboxamide], the values for the minimal effective concentration with D. immitis microfilariae and in the assay on Haemonchus contortus L3 were above 100 µM and 0.3 µM, respectively.
Take `N#Cc1ccc(/C=C/CN2CCc3c(c4cc(F)c(Cl)cc4n3C(=O)NCc3ccnc(Cl)c3)C2)cc1F` [Example 298, (E)-7-chloro-N-((2-chloropyridin-4-yl)methyl)-2-(3-(4-cyano-3-fluoro-phenyl)allyl)-8-fluoro-1,2,3,4-tetrahydro-5H-pyrido[4,3-b]indole-5-carboxamide]: the minimal effective concentration was above 100 µM in the assay on D. immitis microfilariae and 1.8 µM in the assay on Haemonchus contortus L3.
Taken in the same sequence, the figures for `O=C(NCc1ccnc(Cl)c1)n1c2c(c3cc(F)c(Cl)cc31)CN(C/C=C/c1ccc(F)cc1F)CC2` [Example 299, (E)-7-chloro-N-((2-chloropyridin-4-yl)methyl)-2-(3-(2,4-difluorophenyl)-allyl)-8-fluoro-1,2,3,4-tetrahydro-5H-pyrido[4,3-b]indole-5-carboxamide] were 1.8 µM and 0.4 µM.
`O=C(NCc1ccnc(Cl)c1)n1c2c(c3cc(F)c(Cl)cc31)CN(C/C=C/c1ccc(F)c(F)c1)CC2` [Example 300, (E)-7-chloro-N-((2-chloropyridin-4-yl)methyl)-2-(3-(3,4-difluorophenyl)-allyl)-8-fluoro-1,2,3,4-tetrahydro-5H-pyrido[4,3-b]indole-5-carboxamide]: the minimal effective concentration came to 10 µM with D. immitis microfilariae and 0.5 µM in the assay on Haemonchus contortus L3.
`O=C(NCc1ccnc(Cl)c1)n1c2c(c3cc(F)c(Cl)cc31)CN(C/C=C/c1cc(F)c(F)c(F)c1)CC2` [Example 301, (E)-7-chloro-N-((2-chloropyridin-4-yl)methyl)-8-fluoro-2-(3-(3,4,5-trifluorophenyl)allyl)-1,2,3,4-tetrahydro-5H-pyrido[4,3-b]indole-5-carboxamide]: the figures for the minimal effective concentration in the assay on D. immitis microfilariae and with Haemonchus contortus L3 were 18.2 µM and 0.2 µM, respectively.
Consider `O=C(NCc1ccnc(Cl)c1)n1c2c(c3cc(F)c(Cl)cc31)CN(C/C=C/c1cc(F)cc(F)c1)CC2` [Example 302, (E)-7-chloro-N-((2-chloropyridin-4-yl)methyl)-2-(3-(3,5-difluorophenyl)-allyl)-8-fluoro-1,2,3,4-tetrahydro-5H-pyrido[4,3-b]indole-5-carboxamide], for which the minimal effective concentration with D. immitis microfilariae stood at 5.7 µM; in the assay on Haemonchus contortus L3 it was 0.3 µM.
Take `N#Cc1ccc(/C=C/CN2CCc3c(c4c(Cl)c(F)ccc4n3C(=O)NCc3ccnc(Cl)c3)C2)cc1` [Example 303, (E)-9-chloro-N-((2-chloropyridin-4-yl)methyl)-2-(3-(4-cyanophenyl)allyl)-8-fluoro-1,2,3,4-tetrahydro-5H-pyrido[4,3-b]indole-5-carboxamide]: the minimal effective concentration in the assay on D. immitis microfilariae was found to be 57.4 µM; with Haemonchus contortus L3, 1 µM.
As for `O=C(NCc1ccnc(Cl)c1)n1c2c(c3cc(F)c(Cl)cc31)CN(C/C=C/c1ccc(Cl)cc1)CC2` [Example 304, (E)-7-chloro-2-(3-(4-chlorophenyl)allyl)-N-((2-chloropyridin-4-yl)methyl)-8-fluoro-1,2,3,4-tetrahydro-5H-pyrido[4,3-b]indole-5-carboxamide], the figures for the minimal effective concentration in the assay on D. immitis microfilariae and in the assay on Haemonchus contortus L3 were 18.2 µM and 0.3 µM, respectively.
In the case of `O=C(NCc1ccnc(Cl)c1)n1c2c(c3c(Cl)c(F)ccc31)CN(C/C=C/c1ccc(Cl)cc1)CC2` [Example 305, (E)-9-chloro-2-(3-(4-chlorophenyl)allyl)-N-((2-chloropyridin-4-yl)methyl)-8-fluoro-1,2,3,4-tetrahydro-5H-pyrido[4,3-b]indole-5-carboxamide], the minimal effective concentration is 16.5 µM with D. immitis microfilariae and 0.9 µM in the assay on Haemonchus contortus L3.
`O=C(NCc1ccnc(Cl)c1)n1c2c(c3c(Cl)c(F)ccc31)CN(C/C=C/c1ccc(C(F)(F)F)cc1)CC2` [Example 308, (E)-9-chloro-N-((2-chloropyridin-4-yl)methyl)-8-fluoro-2-(3-(4-(trifluoro-methyl)phenyl)allyl)-1,2,3,4-tetrahydro-5H-pyrido[4,3-b]indole-5-carboxamide]: the minimal effective concentration with D. immitis microfilariae was 32.1 µM; with Haemonchus contortus L3 it was 10.3 µM.
Take `O=C(NCc1ccnc(F)c1)n1c2c(c3cc(F)c(Cl)cc31)CN(C/C=C/c1ccc(Cl)c(F)c1)CC2` [Example 309, (E)-7-chloro-2-(3-(4-chloro-3-fluorophenyl)allyl)-8-fluoro-N-((2-fluoropyridin-4-yl)methyl)-1,2,3,4-tetrahydro-5H-pyrido[4,3-b]indole-5-carboxamide]: the minimal effective concentration with D. immitis microfilariae came out at 1.8 µM; with Haemonchus contortus L3, 0.3 µM.
Consider `O=C(NCc1ccnc(F)c1)n1c2c(c3cc(F)c(Cl)cc31)CN(C/C=C/c1ccc(Cl)cc1F)CC2` [Example 310, (E)-7-chloro-2-(3-(4-chloro-2-fluorophenyl)allyl)-8-fluoro-N-((2-fluoropyridin-4-yl)methyl)-1,2,3,4-tetrahydro-5H-pyrido[4,3-b]indole-5-carboxamide], for which the minimal effective concentration in the assay with D. immitis microfilariae worked out at 24.5 µM; in the assay on Haemonchus contortus L3, 1.3 µM.
In the case of `N#Cc1ccc(/C=C/CN2CCc3c(c4cc(F)c(Cl)cc4n3C(=O)NCc3ccnc(F)c3)C2)cc1F` [Example 311, (E)-7-chloro-2-(3-(4-cyano-3-fluorophenyl)allyl)-8-fluoro-N-((2-fluoro-pyridin-4-yl)methyl)-1,2,3,4-tetrahydro-5H-pyrido[4,3-b]indole-5-carboxamide], the minimal effective concentration amounted to 5.7 µM with D. immitis microfilariae and 0.5 µM with Haemonchus contortus L3.
As to `O=C(NCc1ccnc(F)c1)n1c2c(c3cc(F)c(Cl)cc31)CN(C/C=C/c1ccc(F)cc1F)CC2` [Example 312, (E)-7-chloro-2-(3-(2,4-difluorophenyl)allyl)-8-fluoro-N-((2-fluoropyridin-4-yl)methyl)-1,2,3,4-tetrahydro-5H-pyrido[4,3-b]indole-5-carboxamide], the minimal effective concentration in the assay on D. immitis microfilariae came out at 1 µM; with Haemonchus contortus L3, 0.1 µM.
Taken in the same sequence, the figures for `O=C(NCc1ccnc(F)c1)n1c2c(c3cc(F)c(Cl)cc31)CN(C/C=C/c1ccc(F)c(Cl)c1)CC2` [Example 313, (E)-7-chloro-2-(3-(3-chloro-4-fluorophenyl)allyl)-8-fluoro-N-((2-fluoro-pyridin-4-yl)methyl)-1,2,3,4-tetrahydro-5H-pyrido[4,3-b]indole-5-carboxamide] were 3.3 µM and 0.5 µM.
For the compound `O=C(NCc1ccnc(F)c1)n1c2c(c3cc(F)c(Cl)cc31)CN(C/C=C/c1cc(F)c(F)c(F)c1)CC2` [Example 315, (E)-7-chloro-8-fluoro-N-((2-fluoropyridin-4-yl)methyl)-2-(3-(3,4,5-trifluorophenyl)allyl)-1,2,3,4-tetrahydro-5H-pyrido[4,3-b]indole-5-carboxamide], the results for the minimal effective concentration in the assay with D. immitis microfilariae and with Haemonchus contortus L3 were 5.7 µM and 1 µM, respectively.
As for `O=C(NCc1ccnc(F)c1)n1c2c(c3cc(F)c(Cl)cc31)CN(C/C=C/c1cc(F)cc(F)c1)CC2` [Example 316, (E)-7-chloro-2-(3-(3,5-difluorophenyl)allyl)-8-fluoro-N-((2-fluoropyridin-4-yl)methyl)-1,2,3,4-tetrahydro-5H-pyrido[4,3-b]indole-5-carboxamide], the minimal effective concentration with D. immitis microfilariae was 5.7 µM; with Haemonchus contortus L3, above 100 µM.
Taken in the same sequence, the figures for `O=C(NCc1ccnc(F)c1)n1c2c(c3cc(F)c(Cl)cc31)CN(C/C=C/c1ccc(F)cc1)CC2` [Example 319, (E)-7-chloro-8-fluoro-2-(3-(4-fluorophenyl)allyl)-N-((2-fluoropyridin-4-yl)methyl)-1,2,3,4-tetrahydro-5H-pyrido[4,3-b]indole-5-carboxamide] were 10 µM and 10 µM.
Turning to `N#Cc1ccc(/C=C/CN2CCc3c(c4c(C(F)(F)F)cc(F)cc4n3C(=O)NCc3ccnc(Cl)c3)C2)cc1` [Example 320, (E)-N-((2-chloropyridin-4-yl)methyl)-2-(3-(4-cyanophenyl)allyl)-7-fluoro-9-(trifluoromethyl)-1,2,3,4-tetrahydro-5H-pyrido[4,3-b]indole-5-carboxamide], the values for the minimal effective concentration in the assay on D. immitis microfilariae and in the assay with Haemonchus contortus L3 were 18.2 µM and 3.3 µM, respectively.
As to `O=C(NCc1ccnc(Cl)c1)n1c2c(c3c(C(F)(F)F)cc(F)cc31)CN(C/C=C/c1ccc(Cl)cc1)CC2` [Example 322, (E)-2-(3-(4-chlorophenyl)allyl)-N-((2-chloropyridin-4-yl)methyl)-7-fluoro-9-(trifluoromethyl)-1,2,3,4-tetrahydro-5H-pyrido[4,3-b]indole-5-carboxamide], the minimal effective concentration was 10 µM with D. immitis microfilariae and 5.7 µM in the assay with Haemonchus contortus L3.
As for `O=C(NCc1ccnc(Cl)c1)n1c2c(c3c(F)cc(C(F)(F)F)cc31)CN(C/C=C/c1ccc(Cl)cc1)CC2` [Example 323, (E)-2-(3-(4-chlorophenyl)allyl)-N-((2-chloropyridin-4-yl)methyl)-9-fluoro-7-(trifluoromethyl)-1,2,3,4-tetrahydro-5H-pyrido[4,3-b]indole-5-carboxamide], the minimal effective concentration with D. immitis microfilariae was 7.6 µM; in the assay with Haemonchus contortus L3, above 100 µM.
For the compound `O=C(NCc1ccnc(Cl)c1)n1c2c(c3c(C(F)(F)F)cc(F)cc31)CN(C/C=C/c1ccc(F)cc1)CC2` [Example 324, (E)-N-((2-chloropyridin-4-yl)methyl)-7-fluoro-2-(3-(4-fluorophenyl)allyl)-9-(trifluoromethyl)-1,2,3,4-tetrahydro-5H-pyrido[4,3-b]indole-5-carboxamide], the minimal effective concentration with D. immitis microfilariae amounted to 10 µM; in the assay on Haemonchus contortus L3 it was 3.3 µM.

(Values after US10570129B2 (Zoetis Services LLC, priority 2015, dated 2020).)
